From patent US7160903B2, “Sulfonylaminocarboxylic acids” (Sanofi-Aventis Deutschland GmbH, priority 1997, dated 2007)

Key:
stromelysin (MMP-3) = target: T1, stromelysin (MMP-3) (Homo sapiens, UniProt P08254); experiment: Enzymatic activity of the catalytic domain of human stromelysin (fluorogenic substrate); format: biochemical; settings: pH=6.5, 15 min preincubation, fluorescence 328 nm (ex)/393 nm (em)
T1 construct: enzymatic activity of the catalytic domains of human stromelysin and of neutrophil collagenase; made in house
T1 sequence (P08254 100-272 limits assumed): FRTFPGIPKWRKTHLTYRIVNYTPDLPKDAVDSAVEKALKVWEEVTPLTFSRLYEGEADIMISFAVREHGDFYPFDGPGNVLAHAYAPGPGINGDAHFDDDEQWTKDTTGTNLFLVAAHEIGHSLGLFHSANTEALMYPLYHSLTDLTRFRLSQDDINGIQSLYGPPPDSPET
Procedure: (§1) Preparation and determination of the enzymatic activity of the catalytic domains of human stromelysin and of neutrophil collagenase:
(§2) The enzymes stromelysin (MMP-3) and neutrophil collagenase (MMP-8) were prepared according to Ye et al. (Biochemistry; 31 (1992) pages 11231–11235). To measure the enzyme activity or the enzyme inhibitor action, 70 μl of buffer solution and 10 μl of enzyme solution are incubated for 15 min with 10 μl of a 10% strength (v/v) aqueous dimethyl sulfoxide solution, which optionally contains the enzyme inhibitor. After addition of 10 μl of a 10% strength (v/v) aqueous dimethyl sulfoxide solution which contains 1 mmol/L of the substrate, the enzyme reaction is monitored by fluorescence spectroscopy (328 nm (ex)/393 nm(em)). The enzyme activity is shown as the extinction increase/min. The IC50 values listed in Table 2 are determined as those inhibitor concentrations which in each case led to a 50% inhibition of the enzyme.
(§3) The buffer solution contains 0.05% Brij (Sigma, Deisenhofen, Germany) and also 0.1 mol/L Tris/HCl, 0.1 mol/L NaCl, 0.01 mol/L CaCl2 and 0.1 mol/L piperazine-N,N′-bis[2-ethanesulfonic acid] (pH=6.5). The enzyme solution contains 5 μg/ml of one of the enzyme domains prepared according to Ye et al. The substrate solution contains 1 mmol/L of the fluorogenic substrate (7-methoxycoumarin-4-yl)acetyl-Pro-Leu-Gly-Leu-3-(2′,4′-dinitrophenyl)-L-2,3-diaminopropionyl-Ala-Arg-NH2 (Bachem, Heidelberg, Germany).

[1] = target: T2, neutrophil collagenase (MMP-8) (Homo sapiens, UniProt P22894); experiment: Enzymatic activity of the catalytic domain of neutrophil collagenase (fluorogenic substrate); format: biochemical; settings: pH=6.5, 15 min preincubation, fluorescence 328 nm (ex)/393 nm (em), read-out: Neutr. collagenase IC50
T2 construct: enzymatic activity of the catalytic domains of human stromelysin and of neutrophil collagenase; made in house
T2 sequence (P22894 100-262 limits assumed): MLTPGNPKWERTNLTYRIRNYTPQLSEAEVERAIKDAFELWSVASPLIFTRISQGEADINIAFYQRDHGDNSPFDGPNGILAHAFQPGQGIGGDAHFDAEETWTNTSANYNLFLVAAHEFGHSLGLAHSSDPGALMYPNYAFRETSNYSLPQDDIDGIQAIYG
Procedure: as §1, §2, §3

SMILES	IC50 (stromelysin (MMP-3)) [nM]	IC50 [1] [nM]	melting point
O=C(O)[C@@H](CCO)NS(=O)(=O)c1ccc(Oc2ccccc2)cc1 (racemic) [Example 1, N-(Phenoxybenzenesulfonyl) homoserine]	400	10	134 °C
C=CC(NS(=O)(=O)c1ccc(-c2ccc(Cl)cc2)cc1)C(=O)O (racemic) [Example 6]	200	20	
O=C(O)C(CSC1=NCCS1)NS(=O)(=O)c1ccc(-c2ccc(Cl)cc2)cc1 (racemic) [Example 19]	500	50	
COc1ccc(CC(NS(=O)(=O)c2ccc(-c3ccc(N(C)C)cc3)cc2)C(=O)O)cc1OC (racemic) [Example 24]			230 °C
O=C(O)C(NS(=O)(=O)c1ccc(-c2ccc(Cl)cc2)cc1)c1ccsc1 (racemic) [Example 26]	400	40	
O=C(O)[C@@H](NS(=O)(=O)c1ccc(Oc2ccccc2)cc1)[C@@H](O)c1ccc2c(c1)OCO2 (racemic) [Example 35]	100	10	176 °C
O=C(CCC(NS(=O)(=O)c1ccc(-c2ccccc2)cc1)C(=O)O)Nc1ccccc1 (racemic) [Example 47]			227 to 230 °C
CN(C)c1ccc(-c2ccc(S(=O)(=O)NC(CCC(=O)Nc3ccccc3)C(=O)O)cc2)cc1 (racemic) [Example 48]			212 to 214 °C
O=C(O)C1CCCCN1S(=O)(=O)c1ccc(-c2ccccc2)cc1 (racemic) [Example 55]	800	40	174.5 to 175.5 °C
O=C(O)C1CCCCN1S(=O)(=O)c1ccc(-n2nccn2)cc1 (racemic) [Example 63]	3000	600	195 to 196 °C
COc1ccc(CC(NS(=O)(=O)c2ccc(-c3ccc(N(C)C)cc3)cc2)C(=O)O)cc1OC (racemic) [Example 65]	100	3	> 230 °C (dec.)
O=C(CCC(NS(=O)(=O)c1ccc(-c2ccc(Cl)cc2)cc1)C(=O)O)Nc1ccccc1 (racemic) [Example 69]	10	4	238 to 239 °C
O=C(CCC(NS(=O)(=O)c1ccc(-c2ccc(N3CCCC3)cc2)cc1)C(=O)O)Nc1ccccc1 (racemic) [Example 76]	5	3	234 to 236 °C (dec.)
O=C(O)C(Cc1c[nH]c2ccc(F)cc12)NS(=O)(=O)c1ccc(-c2ccc(N3CCCC3)cc2)cc1 (racemic) [Example 78]	20	2	> 230 °C (dec.)
O=C(O)CCCC(NS(=O)(=O)c1ccc(-c2ccccc2)cc1)C(=O)O (racemic) [Example 82]	100	10	171.5 to 172 °C
O=C(O)C(Cc1cccnc1)NS(=O)(=O)c1ccc(-c2ccc(Cl)cc2)cc1 (racemic) [Example 88]	100	7	
O=C(O)C(CCc1c[nH]c2ccccc12)NS(=O)(=O)c1ccc(-c2ccc(Cl)cc2)cc1 (racemic) [Example 105]	30	10	
O=C(O)[C@H]1C[C@@H](O)CN1S(=O)(=O)c1ccc(-c2ccc(Cl)cc2)cc1 [Example 2, (2R)-1-(4-Chlorobiphenylsulfonyl)-4-cis-hydroxyproline]	100	90	
O=C(O)CNS(=O)(=O)c1ccc(Oc2ccc(Cl)cc2)cc1 [Example 3]	20000	200	162 to 164 °C
CN(CC(=O)O)S(=O)(=O)c1ccc(Oc2ccc(Cl)cc2)cc1 [Example 4]			128 to 130 °C
O=C(O)[C@@H](CO)NS(=O)(=O)c1ccc(-c2ccc(Cl)cc2)cc1 [Example 7]	200	40	
O=C(O)[C@H](CO)NS(=O)(=O)c1ccc(Oc2ccccc2)cc1 [Example 8]	300	10	202 to 203 °C
C[C@H](O)[C@H](NS(=O)(=O)c1ccc(Oc2ccccc2)cc1)C(=O)O [Example 9]	300	20	96 to 98 °C
CSCC[C@@H](NS(=O)(=O)c1ccc(-c2ccc(Cl)cc2)cc1)C(=O)O [Example 10]	90	10	
CSCC[C@@H](NS(=O)(=O)c1ccc(-c2ccccn2)s1)C(=O)O [Example 12]			115 to 125 °C
CSCC[C@@H](NS(=O)(=O)c1ccc(-c2ccon2)s1)C(=O)O [Example 13]			70 to 76 °C
C[S+]([O-])CC[C@@H](NS(=O)(=O)c1ccc(-c2ccc(Cl)cc2)cc1)C(=O)O (stereo partly shown) [Example 15]	100	10	

SMILES	IC50 (stromelysin (MMP-3)) [nM]	IC50 [1] [nM]	melting point
CS(=O)(=O)CC[C@@H](NS(=O)(=O)c1ccc(-c2ccc(Cl)cc2)cc1)C(=O)O [Example 16]	70	7	
CS(=O)(=O)CC[C@H](NS(=O)(=O)c1ccc(-c2ccc(Cl)cc2)cc1)C(=O)O [Example 17]	100	20	
O=C(c1ccccc1)c1ccc(C[C@@H](NS(=O)(=O)c2ccc(-c3ccc(Cl)cc3)cc2)C(=O)O)cc1 [Example 23]	1000	600	
O=C(O)[C@@H](CCc1ccccc1)NS(=O)(=O)c1ccc(-c2ccc(Cl)cc2)cc1 [Example 25]	200	40	
O=C(O)[C@@H](Cc1csc2ccccc12)NS(=O)(=O)c1ccc(-c2ccc(Cl)cc2)cc1 [Example 28]	300	60	
O=C(O)[C@@H](Cc1c[nH]c2ccccc12)NS(=O)(=O)c1ccc(-c2ccc(Cl)cc2)cc1 [Example 29, (R)-N-(4-Chlorobiphenylsulfonyl)tryptophan]	80	9	
O=C(O)[C@H](Cc1c[nH]cn1)NS(=O)(=O)c1ccc(Oc2ccccc2)cc1 [Example 30]			183 to 185 °C
O=C(O)[C@H](CSCc1ccccc1)NS(=O)(=O)c1ccc(-c2ccc(Cl)cc2)cc1 [Example 32]	200	40	
O=C(O)C(NS(=O)(=O)c1ccc(-c2ccc(Cl)cc2)cc1)C(O)c1ccccc1 (stereo not shown) [Example 34]	200	20	
O=C(O)C(NS(=O)(=O)c1ccc(-c2ccc(Cl)cc2)cc1)C(O)c1cccs1 (stereo not shown) [Example 36]	200	10	
O=C(O)C[C@H](NS(=O)(=O)c1ccc(-c2ccccc2)cc1)C(=O)O [Example 37]			186.7 °C
O=C(O)C[C@@H](NS(=O)(=O)c1ccc(-c2ccccc2)cc1)C(=O)O [Example 38]			> 55 °C
O=C(C[C@H](NS(=O)(=O)c1ccc(-c2ccc(Cl)cc2)cc1)C(=O)O)OCc1ccccc1 [Example 41]	200	30	
O=C(O)C[C@H](NS(=O)(=O)c1ccc(-c2ccc(Cl)cc2)cc1)C(=O)OCc1ccccc1 [Example 42]	400	30	
O=C(O)C[C@@H](C(=O)O)N(Cc1ccncc1)S(=O)(=O)c1ccc(-c2ccccc2)cc1 [Example 43]			105 °C
NC(=O)C[C@@H](NS(=O)(=O)c1ccc(-c2ccc(Cl)cc2)cc1)C(=O)O [Example 44]	90	10	
O=C(O)CCN(CC(=O)O)S(=O)(=O)c1ccc(Oc2ccc(Cl)cc2)cc1 [Example 45]			169 to 171 °C
CN(C)c1ccc(-c2ccc(S(=O)(=O)N[C@H](CCC(=O)O)C(=O)O)cc2)cc1 [Example 46]			165 °C
CN(C)c1ccc(-c2ccc(S(=O)(=O)N[C@@H](CCC(N)=O)C(=O)O)cc2)cc1 [Example 49]			213 to 215 °C
O=C(CC[C@H](NS(=O)(=O)c1ccc(-c2ccccc2)cc1)C(=O)O)Nc1ccc(C(=O)O)cc1 [Example 50]			266 °C
NC(=O)CC[C@@H](NS(=O)(=O)c1ccc(-c2ccc(Cl)cc2)cc1)C(=O)O [Example 51]	50	5	
NNC(=O)CC[C@H](NS(=O)(=O)c1ccc(-c2ccccc2)cc1)C(=O)O [Example 59]			205 to 207 °C
O=C(O)[C@@H]1CN1S(=O)(=O)c1ccc(-c2ccccc2)cc1 (stereo partly shown) [Example 64]			138 to 139 °C
NC(=O)CC[C@@H](NS(=O)(=O)c1ccc(-c2ccccc2)cc1)C(=O)O [Example 72]	600	20	
O=C(O)[C@H](CCC(=O)N1CCc2ccccc21)NS(=O)(=O)c1ccc(-c2ccccc2)cc1 [Example 100]		20	182.5 to 183.5 °C
O=C(O)[C@H](CCC(=O)N1CCc2ccccc21)NS(=O)(=O)c1ccc(-c2ccc(N3CCCC3)cc2)cc1 [Example 101]			> 130 °C (dec.)
CP(=O)(O)CC[C@H](NS(=O)(=O)c1ccc(-c2ccc(Cl)cc2)cc1)C(=O)O [Example 104]	40	5	
